Results as given in US9364465B2, “Thiazolidinediones of omega-3 polyunsaturated acids as new insulin sensitizers for treating type2 diabetes” (Jiva Pharma, Inc., priority 2013, dated 2016).
Read-outs that look alike come from different tables or passages of the source.

Target: T1, PPARγ (Homo sapiens, UniProt P37231)
T1 construct: expressed in transfected cells
T1 sequence (P37231 238-503 limits assumed): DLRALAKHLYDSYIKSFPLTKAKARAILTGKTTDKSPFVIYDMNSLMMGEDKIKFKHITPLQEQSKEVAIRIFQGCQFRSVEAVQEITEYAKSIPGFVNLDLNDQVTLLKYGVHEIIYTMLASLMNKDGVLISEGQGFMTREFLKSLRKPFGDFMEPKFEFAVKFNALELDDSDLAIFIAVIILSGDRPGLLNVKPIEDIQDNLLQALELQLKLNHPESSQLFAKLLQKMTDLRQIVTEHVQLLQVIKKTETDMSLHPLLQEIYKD
Assay: cell-based chimeric receptor transcription assay (PPAR ligand binding domain fused to GAL4 DNA binding domain, GAL4-regulated luciferase reporter)
Conditions: for RE: RE Conc. 16 μM
Description: To determine if these compounds can activate PPARγ or the members of the PPAR family of nuclear receptors (PPARα and PPARδ), the ability of these compounds to activate PPAR receptors in a cell-based chimeric receptor transcription assay were tested. This is a standard nuclear receptor ligand activity assay that utilizes the ligand binding domain of the PPAR receptor fused to a heterologous GAL4 DNA binding domain. The transcriptional read-out is from a GAL4-regulated luciferase reporter. In this assay, compounds that activate the receptor cause an increase in luciferase activity measured in a luminometer. The data are shown in Table 1 below (average luciferase values from transcription assay).

[1] = 1.02 μM conc., * above background
[2] = 2.6 μM conc., * above background
[3] = 6.4 μM conc., * above background
[4] = 16 μM conc., * above background
[5] = 40 μM conc., * above background
[6] = calculated EC50, PPARγ agonist assay, Table 2, read-out: EC50
[7] = read-out: activation of PPARγ, potency (EC50)

average luciferase values from transcription assay (0.16 μM conc.)	average luciferase values from transcription assay (0.41 μM conc.)	average luciferase values from transcription assay [1]	average luciferase values from transcription assay [2]	average luciferase values from transcription assay [3]	average luciferase values from transcription assay [4]	average luciferase values from transcription assay [5]	RE	EC50 [6] [µM]	EC50 [7] [µM]	SMILES
106	145	167*	207*	623*	1454*	1868*	1354	9.7	10	CC/C=C\C/C=C\C/C=C\C/C=C\C/C=C\C/C=C\CCCC1SC(=O)NC1=O (centres unmarked) [DHA-TZ, 5-((4Z,7Z,10Z,13Z,16Z,19Z)-docosa-4,7,10,13,16,19-hexaenyl)thiazolidine-2,4-dione]
								> 100		CC/C=C\C/C=C\C/C=C\C/C=C\C/C=C\CCCC(=O)OCC [EPA Et Ester, eicosapentaenoic acid ethyl ester, reference compound]
128	123	164*	297*	705*	1416*	48^	1316		12	CC/C=C\C/C=C\C/C=C\C/C=C\C/C=C\CCCCC1SC(=O)NC1=O (centres unmarked) [EPA-TZ, 5-((5Z,8Z,11Z,14Z,17Z)-eicosa-5,8,11,14,17-pentaenyl)thiazolidine-2,4-dione]
